This is an account of results in US20260250290A1 (BRISTOL-MYERS SQUIBB COMPANY, priority 2023, published 2026).

This experiment has as its target T1, full length SGK1 (Homo sapiens, UniProt O00141).
T1 construct: 125 μM full length SGK1 (Life Technologies Part #PR7358A); purchased Life Technologies PR7358A
T1 sequence (O00141 1-431): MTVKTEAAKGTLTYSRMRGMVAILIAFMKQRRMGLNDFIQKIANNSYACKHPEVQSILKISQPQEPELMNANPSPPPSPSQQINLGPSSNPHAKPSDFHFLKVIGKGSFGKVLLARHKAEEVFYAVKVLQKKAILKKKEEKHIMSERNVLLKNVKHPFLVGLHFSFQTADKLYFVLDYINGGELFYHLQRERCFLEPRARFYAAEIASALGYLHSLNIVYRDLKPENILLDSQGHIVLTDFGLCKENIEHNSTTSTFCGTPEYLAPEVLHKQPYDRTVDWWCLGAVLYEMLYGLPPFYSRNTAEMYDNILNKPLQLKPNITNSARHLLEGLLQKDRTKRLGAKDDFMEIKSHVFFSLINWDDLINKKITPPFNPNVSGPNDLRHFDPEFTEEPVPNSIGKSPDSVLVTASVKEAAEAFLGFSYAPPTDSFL
In words: SGK1 inhibition Assay A (Caliper LabChip electrophoretic separation of fluorescent peptide substrate and phosphorylated product). Format: biochemical. To be noted: Assay A; 20 μM ATP, 40 min incubation; read-out: SGK1 IC50.

The IC50 is the concentration that gives 50% inhibition.

Turning to `CC(=O)N1CC=C(c2cc(N3CCC[C@@H](NC(=O)c4[nH]c5ccccc5c4OCCN(C)C)C3)c3c(N)ncnn23)C1` [Example 364, (R)—N-(1-(7-(1-acetyl-2,5-dihydro-1H-pyrrol-3-yl)-4-aminopyrrolo[2,1-f][1,2,4]triazin-5-yl)piperidin-3-yl)-3-(2-(dimethylamino)ethoxy)-1H-indole-2-carboxamide], the IC50 was 12 nM.

For the compound `COC(=O)N1CC=C(c2cc(N3CCC[C@@H](NC(=O)c4[nH]c5ccccc5c4OCCN(C)C)C3)c3c(N)ncnn23)C1` [Example 365, Methyl (R)-3-(4-amino-5-(3-(3-(2-(dimethylamino)ethoxy)-1H-indole-2-carboxamido)piperidin-1-yl)pyrrolo [2,1-f][1,2,4]triazin-7-yl)-2,5-dihydro-1H-pyrrole-1-carboxylate], the IC50 was found to be 21 nM.

For the compound `CN(C)CCOc1c(C(=O)N[C@@H]2CCCN(c3cc(-c4ccnc(C#N)c4)n4ncnc(N)c34)C2)[nH]c2ccccc12` [Example 366, (R)-N-(1-(4-amino-7-(2-cyanopyridin-4-yl)pyrrolo[2,1-f][1,2,4]triazin-5-yl)piperidin-3-yl)-3-(2-(dimethylamino)ethoxy)-1H-indole-2-carboxamide], the half-maximal inhibitory concentration (IC50) was 32 nM.

Take `CN(C)CCOc1c(C(=O)N[C@@H]2CCCN(c3cc(-c4ccc(C#N)nc4)n4ncnc(N)c34)C2)[nH]c2ccccc12` [Example 367, (R)-N-(1-(4-amino-7-(6-cyanopyridin-3-yl)pyrrolo[2,1-f][1,2,4]triazin-5-yl)piperidin-3-yl)-3-(2-(dimethylamino)ethoxy)-1H-indole-2-carboxamide]: the IC50 came to 41 nM.

With `CN(C)CCOc1c(C(=O)N[C@@H]2CCCN(c3cc(-c4ccc(C#N)c(F)c4)n4ncnc(N)c34)C2)[nH]c2ccccc12` [Example 368, (R)-N-(1-(4-amino-7-(4-cyano-3-fluorophenyl)pyrrolo[2,1-f][1,2,4]triazin-5-yl)piperidin-3-yl)-3-(2-(dimethylamino)ethoxy)-1H-indole-2-carboxamide], the IC50 turned out to be 36 nM.

As for `CC(C)Cn1cc(-c2cc(N3CCC[C@@H](NC(=O)c4[nH]c5ccccc5c4OCCN(C)C)C3)c3c(N)ncnn23)ccc1=O` [Example 369, (R)-N-(1-(4-amino-7-(1-isobutyl-6-oxo-1,6-dihydropyridin-3-yl)pyrrolo[2,1-f][1,2,4]triazin-5-yl)piperidin-3-yl)-3-(2-(dimethylamino)ethoxy)-1H-indole-2-carboxamide], the IC50 is 196 nM.

As to `CC(=O)N1CC=C(c2cc(N3CCC[C@@H](NC(=O)c4sc(C5CC5)cc4OCCN(C)C)C3)c3c(N)ncnn23)C1` [Example 370, (R)—N-(1-(7-(1-acetyl-2,5-dihydro-1H-pyrrol-3-yl)-4-aminopyrrolo[2,1-f][1,2,4]triazin-5-yl)piperidin-3-yl)-5-cyclopropyl-3-(2-(dimethylamino)ethoxy)thiophene-2-carboxamide], the IC50 came to 18 nM.

For the compound `COC(=O)N1CC=C(c2cc(N3CCC[C@@H](NC(=O)c4sc(C5CC5)cc4OCCN(C)C)C3)c3c(N)ncnn23)C1` [Example 371, Methyl (R)-3-(4-amino-5-(3-(5-cyclopropyl-3-(2-(dimethylamino)ethoxy)thiophene-2-carboxamido)piperidin-1-yl)pyrrolo[2,1-f][1,2,4]triazin-7-yl)-2,5-dihydro-1H-pyrrole-1-carboxylate], the IC50 turned out to be 1 nM.

As to `CN(C)CCOc1cc(C2CC2)sc1C(=O)N[C@@H]1CCCN(c2cc(-c3ccc(C#N)nc3)n3ncnc(N)c23)C1` [Example 372, (R)-N-(1-(4-amino-7-(6-cyanopyridin-3-yl)pyrrolo[2,1-f][1,2,4]triazin-5-yl)piperidin-3-yl)-5-cyclopropyl-3-(2-(dimethylamino)ethoxy) thiophene-2-carboxamide], the IC50 stood at 2 nM.

Turning to `CN(C)CCOc1cc(C2CC2)sc1C(=O)N[C@@H]1CCCN(c2cc(-c3ccc(C(N)=O)c(F)c3)n3ncnc(N)c23)C1` [Example 373, (R)-N-(1-(4-amino-7-(4-carbamoyl-3-fluorophenyl)pyrrolo[2,1-f][1,2,4]triazin-5-yl)piperidin-3-yl)-5-cyclopropyl-3-(2-(dimethylamino)ethoxy) thiophene-2-carboxamide], the half-maximal inhibitory concentration (IC50) came out at 2 nM.

For `CN(C)CCOc1cc(C2CC2)sc1C(=O)N[C@@H]1CCCN(c2cc(-c3cncnc3)n3ncnc(N)c23)C1` [Example 374, (R)-N-(1-(4-amino-7-(pyrimidin-5-yl)pyrrolo[2,1-f][1,2,4]triazin-5-yl)piperidin-3-yl)-5-cyclopropyl-3-(2-(dimethylamino)ethoxy) thiophene-2-carboxamide], the IC50 amounted to 111 nM.

`CN(C)CCOc1cc(C2CC2)sc1C(=O)N[C@@H]1CCCN(c2cc(-c3ccc(=O)n(CC(F)F)c3)n3ncnc(N)c23)C1` [Example 375, (R)-N-(1-(4-amino-7-(1-(2,2-difluoroethyl)-6-oxo-1,6-dihydropyridin-3-yl)pyrrolo[2,1-f] [1,2,4]triazin-5-yl)piperidin-3-yl)-5-cyclopropyl-3-(2-(dimethylamino)ethoxy)thiophene-2-carboxamide]: the IC50 worked out at 21 nM.

On to `CC(=O)N1CC=C(c2cc(N3CCC[C@@H](NC(=O)c4sc(C5CC5)cc4OC4CCN(C)CC4)C3)c3c(N)ncnn23)C1` [Example 376, (R)—N-(1-(7-(1-acetyl-2,5-dihydro-1H-pyrrol-3-yl)-4-aminopyrrolo[2,1-f][1,2,4]triazin-5-yl)piperidin-3-yl)-5-cyclopropyl-3-((1-methylpiperidin-4-yl)oxy)thiophene-2-carboxamide], for which the IC50 was found to be 7 nM.

`CC(=O)N1CC=C(c2cc(N3CCC[C@@H](NC(=O)c4sc(C5CC5)cc4OC4CCNCC4)C3)c3c(N)ncnn23)C1` [Example 376E, (R)—N-(1-(7-(1-acetyl-2,5-dihydro-1H-pyrrol-3-yl)-4-aminopyrrolo[2,1-f][1,2,4]triazin-5-yl)piperidin-3-yl)-5-cyclopropyl-3-(piperidin-4-yloxy)thiophene-2-carboxamide]: the IC50 was determined as 3 nM.

Consider `CC(=O)N1CC=C(c2cc(N3CCC[C@@H](NC(=O)c4sc(C5CC5)cc4OC4CCN(C(C)C)CC4)C3)c3c(N)ncnn23)C1` [Example 377, (R)-N-(1-(7-(1-acetyl-2,5-dihydro-1H-pyrrol-3-yl)-4-aminopyrrolo[2,1-f][1,2,4]triazin-5-yl)piperidin-3-yl)-5-cyclopropyl-3-((1-isopropylpiperidin-4-yl)oxy)thiophene-2-carboxamide], for which the IC50 was 35 nM.

`CC(=O)N1CC=C(c2cc(N3CCC[C@@H](NC(=O)c4sc(C5CC5)cc4OC4CCN(C5CC5)CC4)C3)c3c(N)ncnn23)C1` [Example 378, (R)-N-(1-(7-(1-acetyl-2,5-dihydro-1H-pyrrol-3-yl)-4-aminopyrrolo[2,1-f][1,2,4]triazin-5-yl)piperidin-3-yl)-5-cyclopropyl-3-((1-cyclopropylpiperidin-4-yl)oxy)thiophene-2-carboxamide]: the IC50 turned out to be 43 nM.

On to `COC(=O)N1CC=C(c2cc(N3CCC[C@@H](NC(=O)c4sc(C5CC5)cc4OC4CCNCC4)C3)c3c(N)ncnn23)C1` [Example 379, Methyl (R)-3-(4-amino-5-(3-(5-cyclopropyl-3-(piperidin-4-yloxy)thiophene-2-carboxamido)piperidin-1-yl)pyrrolo[2,1-f][1,2,4]triazin-7-yl)-2,5-dihydro-1H-pyrrole-1-carboxylate], for which the IC50 amounted to 3 nM.
